Data as given in US20100311729A1, “Substituted imidazopyridazines and pyrrolopyrimidines as lipid kinase inhibitors” (priority 2007, published 2010).
Where two headings read alike, the source gives them in different places.

What was measured:
Format in all cases: biochemical
PI3K alfa = target: T1, PI3K alfa (Homo sapiens, UniProt P42336); test: PI3 kinase assay (Kinase-Glo luminescence), PI3K alfa
T1 construct: for the p110-a subunit (with a deletion of the first 20 amino acids); His tag (C); made in house; host or cells: baculovirus; Tn5 (Trichoplusia ni) or TiniPro insect cells
Protocol: (§1) In a more preferred assay, the kinase reaction is performed in a final volume of 10 μL per well of a low volume non binding CORNING, 384 well black plate (Cat. No. #3676). The final concentrations of ATP and phosphatidyl inositol (PI) in the assay are 1 μM and 10 μg/mL respectively. The reaction is started by the addition of ATP.
(§2) The components of the assay are added per well as follows:
(§3) 50 nL test compounds in 90% DMSO per well, in columns 1-20, 8 concentrations (1/3 and 1/3.33 serial dilution step) in single. • Low control: 50 nL of 90% DMSO in half the wells of columns 23-24 (0.45% in final). • High control: 50 nL of reference compound (e.g. compound of Example 7 in WO 2006/122806, incorporated by reference hereinin that regard) in the other half of columns 23-24 (2.5 μM in final). • Standard: 50 nL of reference compound as just mentioned diluted as the test compounds in columns 21-22 • 20 mL ‘buffer’ are prepared per assay: • 200 μL of 1M TRIS HCl pH7.5 (10 mM in final) • 60 μL of 1M MgCl2 (3 mM in final) • 500 μL of 2M NaCl (50 mM in final) • 100 μL of 10% CHAPS (0.05% in final) • 200 μL of 100 mM DTT (1 mM in final) • 18.94 mL of nanopure water • 10 mL ‘PI’ are prepared per assay: • 200 μL of 1 mg/ml L-alpha-Phosphatidylinositol (Liver Bovine, Avanti Polar Lipids Cat. No. 840042C MW=909.12) prepared in 3% OctylGlucoside (10 μg/ml in final) • 9.8 mL of ‘buffer’ • 10 mL ‘ATP’ are prepared per assay: • 6.7 μL of 3 mM stock of ATP giving a final concentration of 1 μM per well • 10 mL of ‘buffer’ • 2.5 mL of each PI3K construct are prepared per assay in ‘PI’ with the following final concentration : • 10 nM PI3K alfa B-1075 • 25 nM beta BV-949 • 10 nM delta BV-1060 • 150 nM gamma BV-950 • 5 μL of ‘PI/PI3K’ are added per well. • 5 μl ‘ATP’ are added per well to start the reaction. • The plates are then incubated at room temperature for 60 minutes (alfa, beta, delta) or 120 minutes (gamma). • The reaction is terminated by the addition of 10 μL Kinase-Glo (Promega Cat. No. #6714). • The assay plates are read after 10 minutes in Synergy 2 reader (BioTek, Vermont USA) with an integration time of 100 milliseconds and sensitivity set to 191. • Output : The High control is around 60'000 counts and the Low control is 30'000 or lower • This luminescence assay gives a useful Z′ ratio between 0.4 and 0.7
(§4) […] is determined by a four parameter curve fitting routine that comes aloneg with “excel fit”. A 4 Parameter logistic equation is used to calculate IC50 values (IDBS XLfit) of the percentage inhibition of each compound at 8 concentrations (usually 10, 3.0, 1.0, 0.3, 0.1, 0.030, 0.010 and […]). Alternatively, IC50 values are calculated using idbsXLfit model 204, which is a 4 parameter logistic model.
(§5) Testing with the following kinases in the test system mentioned above, with the kinases given in the following tables, the following IC 50 data can be obtained: […]

PI3K beta = target: T2, PI3K beta (Homo sapiens, UniProt P42338); test: PI3 kinase assay (Kinase-Glo luminescence), PI3K beta; conditions: Enzymatic Data; read-out: PI3K beta IC50 [umol]
T2 construct: for the full-length p110-b subunit are generated and fused by overlapping PCR; His tag (C); made in house; host or cells: baculovirus; Tn5 (Trichoplusia ni) or TiniPro insect cells
Protocol: as §1, §2, §3, §4, §5

PI3K delta = target: T3, PI3K delta (Homo sapiens, UniProt O00329); test: PI3 kinase assay (Kinase-Glo luminescence), PI3K delta; conditions: Enzymatic Data; read-out: PI3K delta IC50 [umol]
T3 construct: for the full-length p110-d subunit are generated and fused by overlapping PCR; His tag (C); made in house; host or cells: baculovirus; Tn5 (Trichoplusia ni) or TiniPro insect cells
Protocol: as §1, §2, §3, §4, §5

PI3K gamma = target: T4, PI3K gamma (Homo sapiens, UniProt P48736); test: PI3 kinase assay (Kinase-Glo luminescence), PI3K gamma; conditions: Enzymatic Data; read-out: PI3K gamma IC50 [umol]
T4 construct: PI3Kγ BV-950 p110g(D144aa)-C-Term His Tag; His tag (C); made in house; host or cells: construct from the Roger Williams lab (MRC LMB) in pVL1393; baculovirus; Tn5 (Trichoplusia ni) or TiniPro insect cells
Protocol: as §1, §2, §4

[1] = Enzymatic Data, read-out: PI3K alfa IC50 [umol]

T2 sequence (P42338 with tags, fused parts or gaps limits assumed): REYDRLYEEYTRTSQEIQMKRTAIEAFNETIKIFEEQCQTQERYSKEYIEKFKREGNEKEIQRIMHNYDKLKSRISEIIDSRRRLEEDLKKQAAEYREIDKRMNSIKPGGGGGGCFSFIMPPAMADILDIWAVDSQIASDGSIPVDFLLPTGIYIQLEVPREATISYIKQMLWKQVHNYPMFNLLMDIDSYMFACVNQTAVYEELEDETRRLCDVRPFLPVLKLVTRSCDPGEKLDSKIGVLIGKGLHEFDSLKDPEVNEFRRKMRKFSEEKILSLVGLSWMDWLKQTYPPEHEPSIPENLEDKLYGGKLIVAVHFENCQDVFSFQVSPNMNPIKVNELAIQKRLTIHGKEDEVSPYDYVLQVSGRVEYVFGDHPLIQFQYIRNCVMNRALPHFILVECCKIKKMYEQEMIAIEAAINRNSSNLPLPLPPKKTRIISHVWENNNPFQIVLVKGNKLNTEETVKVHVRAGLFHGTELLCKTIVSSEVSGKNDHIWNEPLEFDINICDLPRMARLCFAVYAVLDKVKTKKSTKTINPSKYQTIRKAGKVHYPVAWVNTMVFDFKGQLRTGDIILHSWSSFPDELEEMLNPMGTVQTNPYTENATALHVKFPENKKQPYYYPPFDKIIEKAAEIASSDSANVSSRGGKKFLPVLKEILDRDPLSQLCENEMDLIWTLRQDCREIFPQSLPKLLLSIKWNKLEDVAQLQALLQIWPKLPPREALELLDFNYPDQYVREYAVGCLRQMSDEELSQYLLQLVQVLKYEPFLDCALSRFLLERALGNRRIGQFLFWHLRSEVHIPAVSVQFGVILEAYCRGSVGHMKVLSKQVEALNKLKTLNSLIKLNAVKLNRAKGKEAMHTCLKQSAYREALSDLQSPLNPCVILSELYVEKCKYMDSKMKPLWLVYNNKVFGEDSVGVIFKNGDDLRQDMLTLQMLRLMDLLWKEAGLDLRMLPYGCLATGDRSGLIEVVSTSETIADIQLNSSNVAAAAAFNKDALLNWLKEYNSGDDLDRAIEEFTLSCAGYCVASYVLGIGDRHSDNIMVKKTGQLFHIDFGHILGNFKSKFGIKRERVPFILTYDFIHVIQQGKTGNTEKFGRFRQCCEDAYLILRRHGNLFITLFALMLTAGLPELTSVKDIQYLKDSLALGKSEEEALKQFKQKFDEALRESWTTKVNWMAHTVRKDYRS
T4 sequence (P48736 144-1102 limits assumed): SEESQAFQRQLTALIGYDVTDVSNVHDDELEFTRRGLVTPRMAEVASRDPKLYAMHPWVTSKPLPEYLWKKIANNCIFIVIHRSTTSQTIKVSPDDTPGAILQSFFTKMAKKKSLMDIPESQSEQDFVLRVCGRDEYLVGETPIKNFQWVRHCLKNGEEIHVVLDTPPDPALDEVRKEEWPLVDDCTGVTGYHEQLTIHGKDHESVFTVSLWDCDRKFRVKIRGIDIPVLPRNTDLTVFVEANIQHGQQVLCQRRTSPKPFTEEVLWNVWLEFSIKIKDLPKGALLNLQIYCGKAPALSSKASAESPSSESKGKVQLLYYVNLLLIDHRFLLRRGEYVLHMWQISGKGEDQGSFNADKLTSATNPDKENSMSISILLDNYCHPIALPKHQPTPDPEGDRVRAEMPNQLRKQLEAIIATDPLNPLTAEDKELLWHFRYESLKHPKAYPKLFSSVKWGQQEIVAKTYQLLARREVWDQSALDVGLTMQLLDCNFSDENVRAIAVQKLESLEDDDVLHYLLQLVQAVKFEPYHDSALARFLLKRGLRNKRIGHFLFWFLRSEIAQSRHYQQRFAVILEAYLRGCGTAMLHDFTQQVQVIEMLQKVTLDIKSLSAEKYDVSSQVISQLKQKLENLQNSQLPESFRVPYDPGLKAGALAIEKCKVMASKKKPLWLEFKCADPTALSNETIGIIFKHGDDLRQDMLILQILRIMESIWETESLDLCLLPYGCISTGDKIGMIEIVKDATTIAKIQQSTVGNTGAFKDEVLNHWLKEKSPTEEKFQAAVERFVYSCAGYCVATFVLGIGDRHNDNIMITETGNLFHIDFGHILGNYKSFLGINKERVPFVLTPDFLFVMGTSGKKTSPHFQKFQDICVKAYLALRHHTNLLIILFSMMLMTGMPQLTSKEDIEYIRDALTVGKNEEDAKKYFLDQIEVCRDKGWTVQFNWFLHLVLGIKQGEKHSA
T3 sequence (O00329 with tags, fused parts or gaps limits assumed): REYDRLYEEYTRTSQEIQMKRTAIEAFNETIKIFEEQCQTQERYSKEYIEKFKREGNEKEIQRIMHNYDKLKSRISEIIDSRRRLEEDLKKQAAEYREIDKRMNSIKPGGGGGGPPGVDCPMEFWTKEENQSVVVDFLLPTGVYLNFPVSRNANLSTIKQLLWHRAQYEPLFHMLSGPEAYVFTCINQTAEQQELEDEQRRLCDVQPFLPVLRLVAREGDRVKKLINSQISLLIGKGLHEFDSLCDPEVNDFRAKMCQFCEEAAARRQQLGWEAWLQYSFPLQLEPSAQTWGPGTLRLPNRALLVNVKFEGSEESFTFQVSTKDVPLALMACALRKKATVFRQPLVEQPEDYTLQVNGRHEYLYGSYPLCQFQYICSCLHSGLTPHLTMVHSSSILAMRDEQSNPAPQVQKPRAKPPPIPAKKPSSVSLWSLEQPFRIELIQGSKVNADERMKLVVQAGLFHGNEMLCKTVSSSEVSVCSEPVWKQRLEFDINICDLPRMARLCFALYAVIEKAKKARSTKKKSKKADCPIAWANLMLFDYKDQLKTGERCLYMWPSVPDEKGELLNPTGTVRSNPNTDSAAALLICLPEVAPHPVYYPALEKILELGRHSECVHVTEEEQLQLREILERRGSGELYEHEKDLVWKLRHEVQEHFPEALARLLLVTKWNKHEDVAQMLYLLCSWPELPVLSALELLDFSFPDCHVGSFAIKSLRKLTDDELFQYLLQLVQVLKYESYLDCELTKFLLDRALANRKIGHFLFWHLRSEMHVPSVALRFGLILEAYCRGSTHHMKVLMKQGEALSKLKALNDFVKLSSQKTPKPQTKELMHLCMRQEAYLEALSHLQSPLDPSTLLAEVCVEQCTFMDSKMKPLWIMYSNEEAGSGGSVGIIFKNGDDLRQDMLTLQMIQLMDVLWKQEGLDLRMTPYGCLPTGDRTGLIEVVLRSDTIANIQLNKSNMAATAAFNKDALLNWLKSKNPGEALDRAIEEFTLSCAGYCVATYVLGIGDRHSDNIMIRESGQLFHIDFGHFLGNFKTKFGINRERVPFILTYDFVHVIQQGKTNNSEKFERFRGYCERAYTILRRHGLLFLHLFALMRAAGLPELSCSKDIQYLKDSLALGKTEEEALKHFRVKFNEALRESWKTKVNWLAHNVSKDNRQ
T1 sequence (P42336 with tags, fused parts or gaps limits assumed): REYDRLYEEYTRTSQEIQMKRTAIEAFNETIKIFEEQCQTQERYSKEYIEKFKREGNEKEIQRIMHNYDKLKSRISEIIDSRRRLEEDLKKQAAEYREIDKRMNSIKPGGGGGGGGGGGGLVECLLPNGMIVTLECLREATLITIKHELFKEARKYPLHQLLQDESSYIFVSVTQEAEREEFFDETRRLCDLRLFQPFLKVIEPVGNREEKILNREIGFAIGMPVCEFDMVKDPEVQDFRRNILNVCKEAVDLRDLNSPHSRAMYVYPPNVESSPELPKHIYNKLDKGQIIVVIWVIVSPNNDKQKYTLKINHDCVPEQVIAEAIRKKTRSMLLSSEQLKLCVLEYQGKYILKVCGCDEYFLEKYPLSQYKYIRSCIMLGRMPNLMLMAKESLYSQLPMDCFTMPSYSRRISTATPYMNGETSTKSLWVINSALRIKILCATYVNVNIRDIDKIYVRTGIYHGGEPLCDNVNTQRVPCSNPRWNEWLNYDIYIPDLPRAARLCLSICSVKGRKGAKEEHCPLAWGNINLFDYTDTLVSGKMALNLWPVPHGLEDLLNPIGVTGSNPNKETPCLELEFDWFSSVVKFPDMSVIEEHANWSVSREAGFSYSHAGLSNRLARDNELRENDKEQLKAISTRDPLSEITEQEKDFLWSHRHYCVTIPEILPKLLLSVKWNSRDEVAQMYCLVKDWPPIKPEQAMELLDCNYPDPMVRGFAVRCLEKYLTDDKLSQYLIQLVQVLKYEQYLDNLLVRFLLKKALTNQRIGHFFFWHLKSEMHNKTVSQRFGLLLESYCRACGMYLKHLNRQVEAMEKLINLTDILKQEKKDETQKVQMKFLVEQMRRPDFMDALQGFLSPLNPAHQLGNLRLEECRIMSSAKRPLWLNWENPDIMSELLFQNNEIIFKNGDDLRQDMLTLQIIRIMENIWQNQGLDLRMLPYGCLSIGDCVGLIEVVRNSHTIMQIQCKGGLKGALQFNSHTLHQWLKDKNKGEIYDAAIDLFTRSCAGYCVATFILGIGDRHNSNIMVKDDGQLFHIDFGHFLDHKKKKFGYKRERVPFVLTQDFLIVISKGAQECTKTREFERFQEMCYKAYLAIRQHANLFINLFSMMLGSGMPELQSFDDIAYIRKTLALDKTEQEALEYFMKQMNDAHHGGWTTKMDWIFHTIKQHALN

SMILES	IC50 (PI3K alfa; read-out: IC50 (μm) PI3K-alfa)	IC50 (PI3K alfa; [1])	IC50 (PI3K beta)	IC50 (PI3K delta)	IC50 (PI3K gamma)
Nc1ncc(-c2ccc3ncc(-c4ccc(Nc5nc(-c6ccccc6)cs5)nc4)n3n2)cc1C(F)(F)F [Example 28, 5-{3-[6-(4-Phenyl-thiazol-2-ylamino)-pyridin-3-yl]-imidazo[1,2-b]pyridazin-6-yl}-3-trifluoromethyl-pyridin-2-ylamine]	12 nM				
CC(C)N1CCC(Oc2ccc(-c3cnc4ccc(-c5cnc(N)c(C(F)(F)F)c5)nn34)cn2)CC1 [Example 29, 5-{3-[6-(1-Isopropyl-piperidin-4-yloxy)-pyridin-3-yl]-imidazo[1,2-b]pyridazin-6-yl}-3-trifluoromethyl-pyridin-2-ylamine]	7 nM				
Nc1ncc(-c2ccc3ncc(-c4ccc(NCc5ccccc5)nc4)n3n2)cc1C(F)(F)F [Example 30, 5-[3-(6-Benzylamino-pyridin-3-yl)-imidazo[1,2-b]pyridazin-6-yl]-3-trifluoro-methyl-pyridin-2-ylamine]	2.3 nM				
Nc1ncc(-c2ccc3ncc(-c4ccc(N5CCOCC5)nc4)n3n2)cc1C(F)(F)F [Example 31, 5-[3-(6-Morpholin-4-yl-pyridin-3-yl)-imidazo[1,2-b]pyridazin-6-yl]-3-trifluoromethyl-pyridin-2-ylamine]	4.5 nM				
Nc1ncc(-c2ccc3ncc(-c4ccc(O)nc4)n3n2)cc1C(F)(F)F [Example 32, 5-[6-(6-Amino-5-trifluoromethyl-pyridin-3-yl)-imidazo[1,2-b]pyridazin-3-yl]-pyridin-2-ol]	4.9 nM				
CCS(=O)(=O)c1ccc(-c2cnc3ccc(-c4cnc(N)c(C(F)(F)F)c4)nn23)cc1 [Example 33, 5-[3-(4-Ethanesulfonyl-phenyl)-imidazo[1,2-b]pyridazin-6-yl]-3-trifluoro-methyl-pyridin-2-ylamine]		63 nM	240 nM	103 nM	1220 nM
COc1ccc(-c2ccc3ncc(-c4ccc(N)nc4)n3n2)cc1OC [Example 34, 5-[6-(3,4-Dimethoxy-phenyl)-imidazo [1,2-b]pyridazin-3-yl]-pyridin-2-ylamine]		103 nM	718 nM	143 nM	1310 nM
CNS(=O)(=O)c1ccc(-c2cnc3ccc(-c4cnc(N)c(C(F)(F)F)c4)nn23)cc1 [Example 35, 4-[6-(6-Amino-5-trifluoro-methyl-pyridin-3-yl)-imidazo [1,2-b]pyridazin-3-yl]-N-methyl-benzene-sulfon-amide]		122 nM	186 nM	171 nM	> 9100 nM
COc1cc(-c2cnc3ccc(-c4cnc(N)c(C(F)(F)F)c4)nn23)ccc1OCCCNC(=O)OC(C)(C)C [Example 36, (3-{4-[6-(6-Amino-5-trifluoro-methyl-pyridin-3-yl)-imidazo [1,2-b]pyridazin-3-yl]-2-methoxy-phenoxy}-propyl)-carbamic acid tert-butyl ester]		255 nM	2160 nM	328 nM	4830 nM
COc1cc(-c2cnc3ccc(-c4cnc(N)c(C(F)(F)F)c4)nn23)ccc1OCCCN [Example 37, 5-{3-[4-(3-Amino-propoxy)-3-methoxy-phenyl]-imidazo[1,2-b]pyridazin-6-yl}-3-trifluoro-methyl-pyridin-2-ylamine]		110 nM	54 nM	72 nM	1120 nM
COc1ccc(-c2ccc3ncc(-c4cnc(N)cn4)n3n2)cc1OC [Example 38, 5-[6-(3,4-Dimethoxy-phenyl)-imidazo [1,2-b]pyridazin-3-yl]-pyrazin-2-ylamine]		92 nM	226 nM	121 nM	1690 nM

Next, values leading:

IC50 (PI3K alfa; read-out: IC50 (μm) PI3K-alfa)	IC50 (PI3K alfa; [1])	IC50 (PI3K beta)	IC50 (PI3K delta)	IC50 (PI3K gamma)	SMILES
	54 nM	19 nM	40 nM	1290 nM	Nc1ccc(-c2cnc3ccc(-c4cnc(N)c(C(F)(F)F)c4)nn23)cn1 [Example 39, 5-{3-(6-Amino-pyridin-3-yl)-imidazo [1,2-b]pyridazin-6-yl]-3-trifluoro-methyl-pyridin-2-ylamine]
	6900 nM	> 9100 nM	> 9100 nM	> 9100 nM	CC(C)(C)OC(=O)NCCCOc1ccc(-c2cnc3ccc(-c4cnc(N)c(C(F)(F)F)c4)nn23)cc1OC(F)(F)F [Example 40, (3-{4-[6-(6-Amino-5-trifluoro-methyl-pyridin-3-yl)-imidazo [1,2-b]pyridazin-3-yl]-2-trifluoro-methoxy-phenoxy}-propyl)-carbamic acid tert-butylester]
	264 nM	212 nM	207 nM	1600 nM	Nc1ncc(-c2ccc3ncc(-c4cnc5[nH]ccc5c4)n3n2)cc1C(F)(F)F [Example 41, 5-[3-(1H- Pyrrolo [2,3-b]pyridin-5-yl)-imidazo [1,2-b]pyridazin-6-yl]-3-trifluoro-methyl-pyridin-2-ylamine]
	635 nM	> 9100 nM	624 nM	> 9100 nM	COc1ccc(-c2cnc3ccc(-c4cnc5[nH]ccc5c4)nn23)cc1OC [Example 42, 3-(3,4-Dimethoxy-phenyl)-6-(1H-pyrrolo[2,3-b]pyridin-5-yl)-imidazo [1,2-b] pyridazine]
	472 nM	528 nM	403 nM	8440 nM	NCCCOc1ccc(-c2cnc3ccc(-c4cnc(N)c(C(F)(F)F)c4)nn23)cc1OC(F)(F)F [Example 43, 5-{3-[4-(3-Amino-propoxy)-3-trifluoro-methoxy-phenyl]-imidazo[1,2-b]pyri-dazin-6-yl}-3-trifluoro-methyl-pyridin-2-ylamine]
	297 nM	2220 nM	336 nM	3500 nM	COc1ccc(-c2ccc3ncc(-c4ccc(NS(C)(=O)=O)cc4)n3n2)cc1OC [Example 44, N-{4-[6-(3,4-Dimethoxy-phenyl)-imidazo [1,2-b]pyridazin-3-yl]-phenyl}-methane-sulfonamide]
	154 nM	378 nM	282 nM	7070 nM	CS(=O)(=O)Nc1ccc(-c2cnc3ccc(-c4cnc(N)c(C(F)(F)F)c4)nn23)cc1 [Example 45, N-{4-[6-(6-Amino-5-trifluoro-methyl-pyridin-3-yl)-imidazo [1,2-b]pyridazin-3-yl]-phenyl}-methane-sulfonamide]
	6120 nM	> 9100 nM	> 9100 nM		CC(C)(C)OC(=O)NCCCOc1ccc(-c2ccc3ncc(-c4cnc(N)c(C(F)(F)F)c4)n3n2)cc1OC(F)(F)F [Example 55]
	15 nM	4 nM	9 nM		Nc1ncc(-c2cnc3ccc(-c4cnc(N)c(C(F)(F)F)c4)nn23)cn1 [Example 79, 5-[6-(6-Amino-5-trifluoro-methyl-pyridin-3-yl)-imidazo [1,2-b]pyridazin-3-yl]-pyrimidin-2-ylamine]
